The source made the active and inactive calls.
How the values were obtained:
NS3 = NS3 (Hepatitis C virus, UniProt A3EZJ3); experiment: HCV NS3 helicase inhibitor potency, dose response, biochemical, fluorescence polarization, ChemBridge library (AID 743264)
[1] = HEp-2 cell cytotoxicity, dose response, cytotoxicity control for RSV inhibitor project, HTS (AID 2410); format: functional; conditions: human respiratory syncytial virus
[2] = molecular target: Arf-GAP with SH3 domain, ANK repeat and PH domain-containing protein 1 (Homo sapiens, UniProt Q9ULH1); format: functional;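 further: biochemical fluorescence polarization dose–response screen measuring inhibition of ASAP1; ASAP1 GAP domain stimulating GTP hydrolysis by truncated human ARF1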
[3] = molecular target: T1, Methionyl-tRNA synthetase, putative (Trypanosoma brucei brucei, UniProt Q38C91); format: functional, Trypanosoma brucei brucei strain 927/4 GUTat10.1
T1 sequence (Q38C91 whole entry): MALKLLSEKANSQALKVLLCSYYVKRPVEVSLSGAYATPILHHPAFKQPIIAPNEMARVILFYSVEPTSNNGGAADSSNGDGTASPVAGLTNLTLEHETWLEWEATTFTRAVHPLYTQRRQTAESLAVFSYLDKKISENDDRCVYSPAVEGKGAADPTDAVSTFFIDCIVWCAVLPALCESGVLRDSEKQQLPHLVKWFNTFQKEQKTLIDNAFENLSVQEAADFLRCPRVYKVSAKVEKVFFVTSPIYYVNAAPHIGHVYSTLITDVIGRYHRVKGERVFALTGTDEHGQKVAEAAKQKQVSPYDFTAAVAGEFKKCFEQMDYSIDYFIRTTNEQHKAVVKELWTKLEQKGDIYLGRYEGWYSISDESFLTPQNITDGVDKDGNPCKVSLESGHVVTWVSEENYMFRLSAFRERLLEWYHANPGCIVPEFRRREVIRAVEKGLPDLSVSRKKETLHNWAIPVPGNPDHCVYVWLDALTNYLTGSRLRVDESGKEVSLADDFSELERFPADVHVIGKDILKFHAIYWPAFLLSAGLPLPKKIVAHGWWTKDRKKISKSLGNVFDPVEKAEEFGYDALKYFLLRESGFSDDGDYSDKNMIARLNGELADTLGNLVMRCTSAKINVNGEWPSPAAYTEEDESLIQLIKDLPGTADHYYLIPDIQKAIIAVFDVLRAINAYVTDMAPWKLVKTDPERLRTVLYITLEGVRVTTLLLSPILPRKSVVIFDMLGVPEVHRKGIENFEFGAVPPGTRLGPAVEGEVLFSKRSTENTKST

[4] = molecular target: T1, Methionyl-tRNA synthetase, putative; format: functional, Trypanosoma brucei brucei strain 927/4 GUTat10.1; remark: listed apart in the source
[5] = Counterscreen for inhibitors of Trypanosoma brucei methionyl tRNA synthetase (MetRS): Luminescence-based cell-based high throughput dose response assay to identify compounds that are cytotoxic to Jurkat human T lymphocyte cells.; format: functional
[6] = molecular target: Fructose-bisphosphate aldolase (Mycobacterium tuberculosis, UniProt P9WQA3); experiment: Fluorescence-based biochemical high throughput dose response assay for inhibitors of the fructose-bisphosphate aldolase (FBA) of M. tuberculosis.; format: functional
Sequence of Fructose-bisphosphate aldolase (P9WQA3 whole entry): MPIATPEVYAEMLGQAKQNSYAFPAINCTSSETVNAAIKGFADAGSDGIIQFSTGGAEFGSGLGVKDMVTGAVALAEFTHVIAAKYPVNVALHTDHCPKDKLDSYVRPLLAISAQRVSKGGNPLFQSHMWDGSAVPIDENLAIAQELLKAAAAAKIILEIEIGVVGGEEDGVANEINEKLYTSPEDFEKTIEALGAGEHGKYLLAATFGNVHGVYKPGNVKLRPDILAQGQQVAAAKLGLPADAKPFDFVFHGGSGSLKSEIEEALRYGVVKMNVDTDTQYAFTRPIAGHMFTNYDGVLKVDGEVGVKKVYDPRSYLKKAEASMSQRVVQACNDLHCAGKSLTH

[7] = molecular target: Endoplasmic reticulum aminopeptidase 1 (Homo sapiens, UniProt Q9NZ08); experiment: ERAP1 aminopeptidase inhibitors, dose response, biochemical, cherry-pick, set 2, plate reader (AID 743314)
Sequence of Endoplasmic reticulum aminopeptidase 1 (Q9NZ08 whole entry): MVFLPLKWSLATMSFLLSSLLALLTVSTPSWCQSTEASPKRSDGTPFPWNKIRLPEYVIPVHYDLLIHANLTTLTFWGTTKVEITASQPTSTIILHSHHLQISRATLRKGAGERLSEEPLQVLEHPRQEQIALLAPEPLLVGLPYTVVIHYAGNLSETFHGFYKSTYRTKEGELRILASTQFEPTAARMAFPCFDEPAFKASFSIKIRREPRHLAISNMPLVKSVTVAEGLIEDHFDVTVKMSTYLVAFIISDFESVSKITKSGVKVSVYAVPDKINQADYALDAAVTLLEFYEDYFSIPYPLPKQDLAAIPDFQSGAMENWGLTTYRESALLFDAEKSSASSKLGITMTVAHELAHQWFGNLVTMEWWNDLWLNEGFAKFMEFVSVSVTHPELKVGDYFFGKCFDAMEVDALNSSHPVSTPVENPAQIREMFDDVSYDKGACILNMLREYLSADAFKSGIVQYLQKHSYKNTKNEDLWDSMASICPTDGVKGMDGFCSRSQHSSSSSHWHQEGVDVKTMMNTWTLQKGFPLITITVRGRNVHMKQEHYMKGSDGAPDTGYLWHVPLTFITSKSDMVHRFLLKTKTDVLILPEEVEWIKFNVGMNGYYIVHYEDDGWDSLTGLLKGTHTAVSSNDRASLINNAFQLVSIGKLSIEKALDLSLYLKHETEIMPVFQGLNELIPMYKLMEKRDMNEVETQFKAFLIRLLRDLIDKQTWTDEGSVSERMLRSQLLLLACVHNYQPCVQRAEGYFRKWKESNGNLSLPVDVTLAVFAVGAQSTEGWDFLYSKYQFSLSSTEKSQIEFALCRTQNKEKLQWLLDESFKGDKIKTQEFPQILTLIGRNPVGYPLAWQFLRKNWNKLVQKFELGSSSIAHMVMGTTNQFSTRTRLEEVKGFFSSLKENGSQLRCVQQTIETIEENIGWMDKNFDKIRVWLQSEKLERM

Aminopeptidase N = molecular target: T2, Aminopeptidase N (Plasmodium falciparum FcB1/Columbia, UniProt O96935); experiment: P. falciparum M1AAP inhibitors, biochemical, fluorogenic H-Leu-NHMec substrate, 1536-well (AID 1445); design: species or system Plasmodium falciparum 3D7, 3D7
T2 sequence (O96935 whole entry): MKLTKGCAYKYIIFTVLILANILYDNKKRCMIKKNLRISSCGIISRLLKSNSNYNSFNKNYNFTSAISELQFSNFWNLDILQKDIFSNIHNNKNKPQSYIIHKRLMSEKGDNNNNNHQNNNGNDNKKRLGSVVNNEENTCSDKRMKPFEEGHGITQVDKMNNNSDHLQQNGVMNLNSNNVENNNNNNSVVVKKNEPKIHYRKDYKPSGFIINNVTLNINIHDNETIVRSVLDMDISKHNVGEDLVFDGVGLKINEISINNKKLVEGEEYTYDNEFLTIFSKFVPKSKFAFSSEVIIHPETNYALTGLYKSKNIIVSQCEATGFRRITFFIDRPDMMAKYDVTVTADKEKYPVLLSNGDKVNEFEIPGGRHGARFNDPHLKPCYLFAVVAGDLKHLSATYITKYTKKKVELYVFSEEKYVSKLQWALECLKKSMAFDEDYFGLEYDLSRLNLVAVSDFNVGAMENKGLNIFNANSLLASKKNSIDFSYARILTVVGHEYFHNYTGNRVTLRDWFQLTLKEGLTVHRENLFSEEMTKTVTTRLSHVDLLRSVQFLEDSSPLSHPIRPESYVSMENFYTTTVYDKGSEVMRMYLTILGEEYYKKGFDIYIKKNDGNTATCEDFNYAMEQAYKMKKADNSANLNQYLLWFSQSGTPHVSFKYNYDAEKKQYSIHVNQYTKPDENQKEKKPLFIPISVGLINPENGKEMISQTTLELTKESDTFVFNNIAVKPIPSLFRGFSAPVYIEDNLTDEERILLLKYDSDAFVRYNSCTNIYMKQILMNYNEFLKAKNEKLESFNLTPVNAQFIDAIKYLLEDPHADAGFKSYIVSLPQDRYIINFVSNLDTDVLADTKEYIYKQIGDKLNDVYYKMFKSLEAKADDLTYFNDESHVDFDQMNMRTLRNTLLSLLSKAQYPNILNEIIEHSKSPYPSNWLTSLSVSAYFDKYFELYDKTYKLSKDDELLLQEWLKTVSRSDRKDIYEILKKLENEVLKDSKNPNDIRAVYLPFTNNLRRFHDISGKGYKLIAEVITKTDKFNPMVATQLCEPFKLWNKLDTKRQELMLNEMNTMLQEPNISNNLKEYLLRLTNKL

fMet-Leu-Phe receptor = fMet-Leu-Phe receptor (Homo sapiens, UniProt P21462); experiment: FPR ligands, dose response (AID 519); format: functional
Sequence of fMet-Leu-Phe receptor (P21462 whole entry): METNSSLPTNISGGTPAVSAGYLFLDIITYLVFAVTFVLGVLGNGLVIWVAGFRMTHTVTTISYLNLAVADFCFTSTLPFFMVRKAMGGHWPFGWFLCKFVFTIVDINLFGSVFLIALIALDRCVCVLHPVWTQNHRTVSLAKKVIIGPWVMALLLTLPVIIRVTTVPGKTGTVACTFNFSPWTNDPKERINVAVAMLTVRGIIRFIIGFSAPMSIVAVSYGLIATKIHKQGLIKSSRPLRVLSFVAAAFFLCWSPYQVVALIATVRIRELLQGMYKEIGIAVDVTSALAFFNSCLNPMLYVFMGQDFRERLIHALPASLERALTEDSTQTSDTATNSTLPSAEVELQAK

Nonstructural protein 1 = Nonstructural protein 1 (Influenza A virus, UniProt Q194T2); format: functional, Influenza A virus (A/California/07/2009(H1N1))
Protein S100-A4 = Protein S100-A4 (Homo sapiens, UniProt P26447); experiment: S100A4-myosin IIA binding inhibitor potency, dose response, biochemical, fluorescence polarization, cherry-picked hits (AID 687001); format: functional
Sequence of Protein S100-A4 (P26447 whole entry): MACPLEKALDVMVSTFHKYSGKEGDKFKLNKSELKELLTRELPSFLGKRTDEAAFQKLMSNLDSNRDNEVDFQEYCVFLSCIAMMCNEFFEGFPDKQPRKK

H9c2 = experiment: cells; format: functional, cell-based; conditions: Rattus norvegicus, H9c2, Myocardium;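 further: confirmatory concentration-response retest of ultra-high-throughput screening hits for modulation of myocardial damage; cell death induced by hydrogen peroxide oxidative stress; compound pretreatment for 60 min then peroxide exposure for 2 h; potency is for protecting the cells against peroxide damage rather than for killing them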
Albumin = Albumin (Bos taurus, UniProt P02769); experiment: Counterscreen for inhibitors of T-cell receptor (TCR)-CD3 interaction: Fluorescence-based biochemical high throughput dose response assay to identify inhibitors of T-cell receptor (TCR)-CD3 interaction using a TAMRA-labeled BSA probe.; format: functional
Sequence of Albumin (P02769 whole entry): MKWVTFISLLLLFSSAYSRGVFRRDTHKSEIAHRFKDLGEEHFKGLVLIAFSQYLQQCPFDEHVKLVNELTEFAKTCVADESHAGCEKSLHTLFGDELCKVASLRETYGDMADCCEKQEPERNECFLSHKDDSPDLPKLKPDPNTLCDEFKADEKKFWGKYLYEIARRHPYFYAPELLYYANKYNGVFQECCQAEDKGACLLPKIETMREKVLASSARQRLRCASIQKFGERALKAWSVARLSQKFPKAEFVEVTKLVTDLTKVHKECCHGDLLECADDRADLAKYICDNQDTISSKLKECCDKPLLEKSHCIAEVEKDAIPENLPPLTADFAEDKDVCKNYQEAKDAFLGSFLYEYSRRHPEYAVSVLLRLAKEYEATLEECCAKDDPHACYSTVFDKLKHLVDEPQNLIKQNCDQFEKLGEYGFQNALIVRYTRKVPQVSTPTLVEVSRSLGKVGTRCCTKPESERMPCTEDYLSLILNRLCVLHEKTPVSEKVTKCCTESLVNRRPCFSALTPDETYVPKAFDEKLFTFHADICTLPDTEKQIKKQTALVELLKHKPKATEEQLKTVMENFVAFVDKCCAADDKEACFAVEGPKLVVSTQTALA

[8] = molecular target: T3, Probable nicotinate-nucleotide adenylyltransferase (Staphylococcus aureus (strain N315), UniProt P65502); format: functional, Staphylococcus aureus subsp. aureus N315; conditions: read-out: IC50_Mean;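 on IC50 Mean: confirmatory dose-response retesting of NadD inhibitor hits first found in an ultra-high-throughput screen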
T3 sequence (P65502 whole entry): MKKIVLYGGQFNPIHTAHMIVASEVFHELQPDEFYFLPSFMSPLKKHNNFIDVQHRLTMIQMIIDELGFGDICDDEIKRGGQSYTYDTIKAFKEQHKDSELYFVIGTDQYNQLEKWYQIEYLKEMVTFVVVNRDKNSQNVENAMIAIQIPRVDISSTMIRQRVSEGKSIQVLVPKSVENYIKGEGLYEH

[9] = molecular target: T3, Probable nicotinate-nucleotide adenylyltransferase; format: functional, Staphylococcus aureus subsp. aureus N315
[10] = molecular target: T4, Scavenger receptor class B member 1 (Mus musculus, UniProt Q61009); experiment: inhibitors of SR-BI dependent HDL uptake, dose response, ldlA[mSR-BI] CHO cells, fluorescence plate reader, dry powder, set 9 (AID 623880); format: functional, cell-based
T4 sequence (Q61009 whole entry): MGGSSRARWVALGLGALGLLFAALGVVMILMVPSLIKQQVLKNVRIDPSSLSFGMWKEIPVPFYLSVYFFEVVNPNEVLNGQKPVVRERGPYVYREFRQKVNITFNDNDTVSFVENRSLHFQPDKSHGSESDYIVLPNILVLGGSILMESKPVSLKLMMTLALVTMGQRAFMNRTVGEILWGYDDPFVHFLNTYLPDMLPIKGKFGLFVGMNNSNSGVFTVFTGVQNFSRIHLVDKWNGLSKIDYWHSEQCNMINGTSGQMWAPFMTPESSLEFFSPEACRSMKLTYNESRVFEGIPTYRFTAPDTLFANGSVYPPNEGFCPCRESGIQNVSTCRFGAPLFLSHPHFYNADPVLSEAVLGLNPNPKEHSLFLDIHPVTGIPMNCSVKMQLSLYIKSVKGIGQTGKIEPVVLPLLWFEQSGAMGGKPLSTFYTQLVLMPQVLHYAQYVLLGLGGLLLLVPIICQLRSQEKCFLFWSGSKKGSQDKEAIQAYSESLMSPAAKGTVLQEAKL

[11] = molecular target: T4, Scavenger receptor class B member 1; experiment: inhibitors of SR-BI-mediated HDL uptake, dose response, cell-based, ldlA[mSR-BI] CHO, DiI fluorescence, dry powder, set 10 (AID 624029); format: functional
[12] = molecular target: Potassium channel subfamily K member 9 (Homo sapiens, UniProt Q9NPC2); experiment: TASK3 (KCNK9) channel inhibitors, thallium flux, SAR follow-up, selectivity assay for TASK1 inhibitor project, cell-based, FluxOR thallium flux, concentration-response (AID 652211); format: functional;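 further: potency is for inhibitors of the channel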
Sequence of Potassium channel subfamily K member 9 (Q9NPC2 whole entry): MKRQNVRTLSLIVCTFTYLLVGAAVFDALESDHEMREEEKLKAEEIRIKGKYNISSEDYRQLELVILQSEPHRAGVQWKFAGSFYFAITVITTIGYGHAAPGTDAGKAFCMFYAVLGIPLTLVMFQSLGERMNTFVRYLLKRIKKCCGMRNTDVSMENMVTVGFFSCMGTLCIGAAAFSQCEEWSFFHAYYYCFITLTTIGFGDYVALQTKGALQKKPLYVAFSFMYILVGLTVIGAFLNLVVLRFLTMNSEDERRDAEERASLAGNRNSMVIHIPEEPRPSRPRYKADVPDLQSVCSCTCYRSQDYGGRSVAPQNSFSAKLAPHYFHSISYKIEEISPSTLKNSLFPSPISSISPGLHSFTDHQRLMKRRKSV

[13] = molecular target: Potassium channel subfamily K member 3 (Homo sapiens, UniProt O14649); experiment: TASK1 (KCNK3) potassium channel inhibitors, SAR follow-up, CHO cells, FluxOR thallium flux (AID 652212); format: functional
[14] = A549 cell cytotoxicity, dose response, cytotoxicity control, plate reader, cherry-pick, antagonist series (AID 743412); format: functional, cell-based
[15] = LGR2 antagonists, dose response, cell-based, HEK293, CRE-luciferase reporter, cherry pick (AID 743342); format: functional
[16] = BHK-21 cell cytotoxicity, cytotoxicity control for flavivirus guanylyltransferase probe project, secondary screen (AID 624078); format: functional
[17] = A Cell-Based Confirmatory Screen for Compounds that Inhibit VEEV, TC-83 (8).; format: functional
[18] = molecular target: T5, Sentrin-specific protease 8 (Homo sapiens, UniProt Q96LD8); format: functional
T5 sequence (Q96LD8 whole entry): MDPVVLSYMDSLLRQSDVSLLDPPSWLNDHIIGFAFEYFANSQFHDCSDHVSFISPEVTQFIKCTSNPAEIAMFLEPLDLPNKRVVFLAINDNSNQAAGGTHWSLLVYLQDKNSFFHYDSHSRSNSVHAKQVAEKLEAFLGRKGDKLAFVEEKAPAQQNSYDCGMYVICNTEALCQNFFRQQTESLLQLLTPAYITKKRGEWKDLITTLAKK

[19] = molecular target: T5, Sentrin-specific protease 8; format: functional; remark: listed apart in the source
HeLa = experiment: HeLa cell cytotoxicity, dose response, cytotoxicity control for MITF activator project, CellTiter-Glo luminescence, cherry-pick samples (AID 540259); format: functional, cell-based; conditions: Homo sapiens
[20] = molecular target: T6, Oxysterols receptor LXR-beta (Homo sapiens, UniProt P55055); format: functional, cell-based;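 further: agonist activity at LXR measured by a cell-based luminescence readout across a dose range, run as a counterscreen for daf-12 agonists; HEK293 cells with Gal4-LXR fusion and GAL4-driven luciferase reporter; potency for activation of Gal4-LXR reporter so compounds are agonists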
T6 sequence (P55055 whole entry): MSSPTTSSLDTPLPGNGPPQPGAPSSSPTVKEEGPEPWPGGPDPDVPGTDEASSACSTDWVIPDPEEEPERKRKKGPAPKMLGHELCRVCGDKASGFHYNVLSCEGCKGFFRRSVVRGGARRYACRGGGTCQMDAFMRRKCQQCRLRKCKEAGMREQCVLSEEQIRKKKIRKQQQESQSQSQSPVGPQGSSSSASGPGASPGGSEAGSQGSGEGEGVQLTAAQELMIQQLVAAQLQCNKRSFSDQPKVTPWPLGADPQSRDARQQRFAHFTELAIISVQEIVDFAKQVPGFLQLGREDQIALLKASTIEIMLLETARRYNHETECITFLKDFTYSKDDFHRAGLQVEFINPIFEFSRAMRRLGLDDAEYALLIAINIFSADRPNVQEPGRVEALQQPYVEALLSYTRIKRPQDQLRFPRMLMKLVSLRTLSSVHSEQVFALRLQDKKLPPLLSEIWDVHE

Protein skinhead-1 = molecular target: T7, Protein skinhead-1 (Caenorhabditis elegans, UniProt P34707); format: functional
T7 sequence (P34707 whole entry): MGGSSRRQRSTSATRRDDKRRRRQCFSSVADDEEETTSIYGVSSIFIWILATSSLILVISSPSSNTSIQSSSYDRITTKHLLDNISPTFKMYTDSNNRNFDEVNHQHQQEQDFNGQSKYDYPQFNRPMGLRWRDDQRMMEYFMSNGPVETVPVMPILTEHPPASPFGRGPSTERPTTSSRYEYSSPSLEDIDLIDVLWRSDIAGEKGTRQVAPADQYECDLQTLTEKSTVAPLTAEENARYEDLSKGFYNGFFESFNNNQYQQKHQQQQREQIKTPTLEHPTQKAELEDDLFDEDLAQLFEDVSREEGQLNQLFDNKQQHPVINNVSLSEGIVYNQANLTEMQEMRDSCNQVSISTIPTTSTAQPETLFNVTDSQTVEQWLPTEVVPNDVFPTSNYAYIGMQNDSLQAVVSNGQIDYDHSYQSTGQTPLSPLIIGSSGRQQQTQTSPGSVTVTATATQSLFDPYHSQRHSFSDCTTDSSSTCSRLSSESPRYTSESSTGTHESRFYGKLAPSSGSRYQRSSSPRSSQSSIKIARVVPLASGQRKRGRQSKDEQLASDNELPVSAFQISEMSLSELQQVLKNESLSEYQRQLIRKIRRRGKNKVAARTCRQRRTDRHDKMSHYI

[21] = MITF Orthogonal Assay: SK-MEL-5 CTG Assay Measured in Cell-Based System Using Plate Reader - 2084-02_Inhibitor_Dose_DryPowder_Activity_Set7.; format: functional
[22] = MITF: Counter assay: A375 proliferation Measured in Cell-Based System Using Plate Reader - 2084-03_Inhibitor_Dose_DryPowder_Activity_Set8.; format: functional; conditions: A-375

Sequence of NS3 (A3EZJ3 whole entry): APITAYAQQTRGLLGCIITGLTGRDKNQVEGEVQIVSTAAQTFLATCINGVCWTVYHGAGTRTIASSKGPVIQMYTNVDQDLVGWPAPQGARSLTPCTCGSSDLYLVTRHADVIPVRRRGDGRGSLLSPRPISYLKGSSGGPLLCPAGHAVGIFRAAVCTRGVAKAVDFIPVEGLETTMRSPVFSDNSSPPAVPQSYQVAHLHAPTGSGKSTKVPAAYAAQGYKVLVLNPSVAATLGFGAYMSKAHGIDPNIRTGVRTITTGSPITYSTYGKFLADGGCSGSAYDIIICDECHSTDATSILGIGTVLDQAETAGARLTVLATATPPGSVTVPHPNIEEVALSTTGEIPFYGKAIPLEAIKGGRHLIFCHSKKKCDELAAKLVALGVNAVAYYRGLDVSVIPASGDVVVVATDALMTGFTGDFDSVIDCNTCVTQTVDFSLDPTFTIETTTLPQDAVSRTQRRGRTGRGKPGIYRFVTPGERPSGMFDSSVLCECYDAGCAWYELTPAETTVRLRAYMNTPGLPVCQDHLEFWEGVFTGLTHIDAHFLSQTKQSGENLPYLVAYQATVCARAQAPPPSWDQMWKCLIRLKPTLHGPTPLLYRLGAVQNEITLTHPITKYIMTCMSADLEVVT

Cc1ccc(C)n1NC1=NC(=O)CS1
IC50 (NS3): 27.2 µM (inactive)

Fc1ccc(Nc2nc(-c3ccncc3)nc3ccccc23)cc1F
CC50 [1]: 45.1 µM (active)
IC50 [2]: 46.5 µM (inactive)

COc1ccc(OCc2cc(C(=O)NCc3nc(C)cs3)no2)c(Cl)c1
IC50 [3]: 46.9 µM (inactive)
IC50 [4]: 23.5 µM (inactive)
IC50 [5]: 83.3 µM (inactive)

Cc1nc2oc3c(=O)nc[nH]c3c2c2c1COC(C)(C)C2
IC50 [6]: 2.33 µM (active)

CN1CCN(Cc2c(O)ccc3cc(-c4ccccn4)c(=O)oc23)CC1
AC50 [7]: 1.88 µM (active)
IC50 (Aminopeptidase N): 52.2 µM (active)

CSc1ccccc1NS(=O)(=O)c1ccccc1
Ki (fMet-Leu-Phe receptor): > 66.7 µM (inactive)

CC1N(C)c2cc(NC(=O)c3ccco3)ccc2C1(C)C (configuration not stated)
IC50 (Nonstructural protein 1): 69.6 µM (active)
AC50 (Protein S100-A4): 1.91 µM (active)

CC(=O)OC[C@@H]1CN(Cc2ccccc2)C[C@H](n2cnc3c(N(C)C(C)C)ncnc32)O1
AC50 (cells): 28.8 µM (active)

CCOC(=O)Cn1/c(=N/C(=O)c2cc(-c3cccs3)nc3ccccc23)sc2cc(S(N)(=O)=O)ccc21
IC50 (H9c2): > 79 µM (inactive)
IC50 (Albumin): > 94.1 µM (inactive)
IC50 [8]: 31.4 µM (active)
IC50 [9]: 14.2 µM (active)

C[C@@H]1CN([C@H](C)CO)C(=O)c2cc(NC(=O)C3CCCCC3)ccc2O[C@H]1CN(C)S(=O)(=O)c1cccc(Cl)c1
AC50 [10]: 0.796 µM (active)
AC50 [11]: 1.22 µM (active)

COc1ccc(F)cc1C(=O)Nc1cccc(NC(=O)c2cccc(C)c2)c1
IC50 [12]: 0.87 µM (active)
IC50 [13]: 0.225 µM (active)

C[C@H]1CCCCO[C@@H](CN(C)C(=O)Nc2ccccc2)[C@@H](C)CN([C@@H](C)CO)C(=O)c2cc(NC(=O)NC3CCCCC3)ccc2O1
AC50 [14]: 43.3 µM (active)
AC50 [15]: 5.33 µM (active)

O=C(O)CSc1cc(NS(=O)(=O)c2cccc3cccnc23)c2ccccc2c1O
CC50 [16]: 6.1 µM (active)

CCN1CCN(C)C/C1=N\c1ccc([N+](=O)[O-])cc1C(=O)Nc1ccccc1
IC50 [17]: < 0.22 µM (active)

CCCCO/C(O)=C1\C(C)=NC2(O)c3ccccc3C(=O)C12O (configuration not stated)
IC50 [18]: 10 µM (active)
IC50 [19]: 4.54 µM (active)

C/C(=N/OCc1ccc(Br)cc1)c1ccccn1
AC50 (HeLa): 90.3 µM (active)
EC50 [20]: > 67.6 µM (inactive)
IC50 (Protein skinhead-1): 34.5 µM (active)

O=C1C=C(Nc2ccc(F)cc2)C(=O)c2ccccc21
AC50 [21]: 0.595 µM (active)
AC50 [22]: > 70 µM (inactive)

Source: ChEMBL document CHEMBL1201862, “PubChem BioAssay data set” (2004)
